Some test systems named below: DMS-114; LXFL 529; RXF 631; SNB-78; XF498; BT-549; NCI/ADR-RES; DMS-273; HOP-18.
What all share (test): inhibition of tumour cell growth, NCI panel, 48 h

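1) Cells in 96-well plates. 2) Compound, 48 h, 5 concentrations. 3) Linear interpolation between surrounding doses. 4) Unreached endpoint = highest concentration. GI50 is the concentration that inhibits growth by half.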 The source made the active and inactive calls. No stated cut-off is given here; in the data, active = GI50 up to about 1.1 µM and inactive = higher. Bounds are passed on as bounds.

In the case of `Cc1cccc(NC(N)=S)c1`, the GI50 in the experiment on DMS-114, in the experiment with LXFL 529, in the experiment on RXF 631, in the experiment with SNB-78 and with XF498 was > 100 µM (inactive) each time.

For the molecule `COc1ccc(C(=C2C=CC=C2)c2ccc(OC)cc2)cc1`, the GI50 in the experiment on BT-549 was > 100 µM (inactive); in the experiment on NCI/ADR-RES, 47.3 µM (inactive).

Regarding `COc1c2c(c3ccccc3c1O)C1C=CC2C1` (stereo not given), the GI50 was 4.95 µM (inactive) with DMS-114; 15.7 µM (inactive) in the experiment with DMS-273; 15.1 µM (inactive) in the experiment with HOP-18; 3.82 µM (inactive) with LXFL 529; 14.7 µM (inactive) with XF498.

For `COC(=O)C1=C(C)N2CCSC2(C)C(C(=O)OC)C1c1cccc(Cl)c1` (stereo not given), the figures for the GI50 in the experiment on DMS-114 and in the experiment with LXFL 529 were 19.8 µM (inactive) and 20 µM (inactive), respectively.

For `COc1ccc(-c2c3c(nc4[nH]c(=S)[nH]c(=S)c24)CCCC3)cc1OC`, the GI50 in the experiment on BT-549 was 48.9 µM (inactive); in the experiment with NCI/ADR-RES, 21.5 µM (inactive).

With `O=C(O)C(Br)Cc1ccc2c(c1)OCO2` (stereo not given), the GI50 with DMS-114 is > 100 µM (inactive); in the experiment on LXFL 529, > 100 µM (inactive); with SNB-78, > 100 µM (inactive); in the experiment on XF498, 24 µM (inactive).

`Oc1cc2cc(O)nc(O)c2c(O)n1`: the GI50 in the experiment with DMS-114, in the experiment with DMS-273, with LXFL 529, with RXF 631, in the experiment with SNB-78 and in the experiment on XF498 was > 100 µM (inactive) each time.

As to `CC(=N/NC(=S)Nc1c(C)n(C)n(-c2ccccc2)c1=O)/C(C)=N\NC(=S)Nc1c(C)n(C)n(-c2ccccc2)c1=O`, the GI50 in the experiment on BT-549 and in the experiment with NCI/ADR-RES was > 100 µM (inactive) each time.

For the molecule `CN(C)/N=C(/CC(O)(C(F)(F)F)C(F)(F)F)c1ccc([N+](=O)[O-])cc1`, the GI50 with NCI/ADR-RES is > 100 µM (inactive).

Consider `COP(=O)(OC)C(Cc1c[nH]c2ccccc12)NC(=O)OCc1ccccc1` (stereo not given), for which, in the experiment on NCI/ADR-RES, the GI50 is > 100 µM (inactive).

Take `C[C@H](N)C(=O)N[C@@H]1[C@H]2C(=C(O)C[C@@H](O)[C@@H]2O)C(=O)O[C@@H]1C`: the GI50 is > 100 µM (inactive) in the experiment with DMS-114; > 100 µM (inactive) with DMS-273; 76.9 µM (inactive) in the experiment with HOP-18; > 100 µM (inactive) in the experiment on NCI/ADR-RES; > 82 µM (inactive) with XF498.

Consider `C=CC(OC(=O)C(C)C)c1ccc(OC(=O)C(C)C)cc1` (stereo not given), for which the GI50 in the experiment on BT-549 was 17.4 µM (inactive); with NCI/ADR-RES, 14.2 µM (inactive).

For `CCCN(CCC)C1=Nc2ccccc2-n2cnnc2C1`, the GI50 in the experiment with DMS-114, with DMS-273, with LXFL 529, with SNB-78 and in the experiment with XF498 was > 100 µM (inactive) throughout.

Regarding `c1ccc(P2c3ccccc3Nc3ccccc32)cc1`, the GI50 in the experiment with NCI/ADR-RES is > 100 µM (inactive).

Regarding `COC1=C(C)C(=O)C2=C(C1=O)[C@@H]1[C@@H]3Cc4c(OC(=O)CO)c(C)c(OC)c(O)c4[C@H](CNC(=O)C(C)=O)N3[C@@H](C#N)[C@H](C2)N1C`, the GI50 with DMS-114 is < 0.01 µM (active); in the experiment on DMS-273 it was 0.0189 µM (active); with HOP-18 it was 0.0382 µM (active); in the experiment on NCI/ADR-RES, 1.08 µM (active); in the experiment on SNB-78, < 0.013 µM (active); in the experiment with XF498, < 0.01 µM (active).

For `COc1ccc(C2=NN(C(=O)c3ccc(Cl)cc3)C(O)(c3cc(F)c(Cl)cc3Cl)C2)cc1` (stereo not given), the GI50 was > 100 µM (inactive) in the experiment with BT-549 and 48.3 µM (inactive) with NCI/ADR-RES.

`COc1cc(CNc2nc3c(NC(C)=O)cc(C(F)(F)F)cc3nc2-c2ccccc2)cc(OC)c1OC`: the GI50 was > 100 µM (inactive) in the experiment with DMS-114, > 100 µM (inactive) with DMS-273, > 100 µM (inactive) in the experiment with LXFL 529 and 26.5 µM (inactive) in the experiment on XF498.

For the molecule `Cc1ccc(C(=O)N/N=C(\N=N\c2cccc([N+](=O)[O-])c2)c2ccc(N(C)C)cc2)cc1`, the GI50 in the experiment on BT-549 is 47.8 µM (inactive); in the experiment on NCI/ADR-RES, 41.8 µM (inactive).

On to `CC[N+]1(C)CCC(O)(c2ccccc2)C(C(=O)c2ccccc2)C1` (stereo not given), for which the GI50 with BT-549 was 9.02 µM (inactive); with DMS-114, 20.2 µM (inactive); with DMS-273 it was 21.4 µM (inactive); with HOP-18, 13.7 µM (inactive); in the experiment on LXFL 529, 10 µM (inactive); in the experiment with NCI/ADR-RES, 29.6 µM (inactive).

For `O=C(O)c1c[nH]c2c(=O)[nH]cnc12`, the GI50 in the experiment on DMS-114, in the experiment on HOP-18, in the experiment with LXFL 529, with RXF 631 and with SNB-78 was > 100 µM (inactive) throughout.

Turning to `O=C(Nc1c(Cl)cc([N+](=O)[O-])cc1Cl)/C(=N\Nc1cccc(Cl)c1)c1c(O)c2ccccc2oc1=O`, the figures for the GI50 in the experiment on DMS-114 and in the experiment with RXF 631 were 52.7 µM (inactive) and 53.6 µM (inactive), respectively.

For `CCOC(=O)C1=C(C)N(c2ccc(Cl)cc2)C2(O)C=CC(Nc3ccc(Cl)cc3)=C3C(=O)N(c4ccccc4)C(=O)C312` (stereo not given), the GI50 with BT-549 was 1.54 µM (inactive); with NCI/ADR-RES it was 2.75 µM (inactive).

Regarding `CC1=Nc2nc(Cl)cn2C(=O)C1(Cl)Cl`, in the experiment with NCI/ADR-RES, the GI50 was > 10 µM (inactive).

For `C/C(N)=N/OCc1nc(C)no1`, the GI50 with BT-549 and with NCI/ADR-RES was > 100 µM (inactive) throughout.

For `COc1ccc([C@@H]2ON(C)[C@H]3CN(C)C(=O)[C@@H]23)cc1`, in the experiment with NCI/ADR-RES, the GI50 is > 100 µM (inactive).

For the molecule `CC1CC2C3CCC4=CC(=O)C=CC4(C)C3(F)C(O)CC2(C)C1(O)C(=O)COP(=O)(O)O` (stereo not given), the GI50 in the experiment with BT-549, with DMS-273, in the experiment on HOP-18, in the experiment with LXFL 529, in the experiment on SNB-78 and in the experiment on XF498 was > 100 µM (inactive) throughout.

`CC(=O)NC(CCC(=O)C=[N+]=[N-])C(=O)O` (stereo not given): the GI50 with BT-549 and with NCI/ADR-RES was > 100 µM (inactive) each time.

For the molecule `CC1[C@@]2(O[C@@H]3C=C4C5CCC6Cc7nc8c(nc7C[C@@]6(C)C5C[C@H](O)[C@@]4(C)[C@]13O)CC1CCc3c(cc4c5c3C(O)C[C@H]5[C@@H](C)C3(O4)OC(C)(C)CC3O)[C@]1(C)C8)O[C@@](C)(CO)C[C@@H]2O` (stereo not given in full), the GI50 in the experiment on DMS-114 was 0.119 µM (active); in the experiment on DMS-273, 0.0504 µM (active); in the experiment on HOP-18, 1.92 µM (inactive); in the experiment on SNB-78, 0.183 µM (active); in the experiment on XF498, 0.0162 µM (active).

On to `COC1=CC(C2c3cc4c(cc3[C@@H](Nc3ccc([N+](=O)[O-])cc3)C3COC(=O)[C@H]23)OCO4)=CC(=O)C1=O` (stereo not given in full), for which the GI50 is 2.57 µM (inactive) in the experiment on DMS-114; 0.697 µM (active) in the experiment on DMS-273; 53.6 µM (inactive) in the experiment on HOP-18; 16.4 µM (inactive) in the experiment on LXFL 529; 2.29 µM (inactive) in the experiment on RXF 631; 28 µM (inactive) in the experiment with SNB-78. For the same molecule, the GI50 with XF498 is 5.5 µM (inactive).

Consider `Nc1ccn(C2OC(CO)C(O)C2O)c(=O)c1` (stereo not given), for which the GI50 is 165 µM (inactive) in the experiment on DMS-273; 295 µM (inactive) in the experiment with HOP-18; 180 µM (inactive) with NCI/ADR-RES; > 625 µM (inactive) in the experiment on SNB-78; < 0.0625 µM (active) in the experiment with XF498.

On to `CC1=C(CO)C(=O)O[C@@H]([C@@H](C)[C@H]2CC[C@H]3[C@@H]4C[C@H]5O[C@]56[C@@H](O)C=CC(=O)[C@]6(C)[C@H]4CC[C@]23C)C1` [WITHAFERIN A], for which the GI50 with DMS-114 is 0.478 µM (active); in the experiment on DMS-273, 0.405 µM (active); with LXFL 529, 0.333 µM (active); in the experiment on XF498 it was 1.43 µM (inactive).

Values taken from ChEMBL document CHEMBL1201862, “PubChem BioAssay data set” (2004).
